Reference: patent publication US6914045B2, “Glycopeptide antibiotics” (Wyeth Holdings Corporation, priority 2001, dated 2005)
≈ marks a conversion by molar mass, not a printed value.

How the values were obtained:
Assay in all cases: in vitro antibacterial evaluation, MIC by broth dilution
Type in all cases: cell-based
Streptococcus sp. = conditions: broth dilution, 18 hours at 35° C.
In short: (§1)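 Step 1: dilute antibiotic across 64-0.06 μg/mL in Muller-Hinton II […]. Step 2: inoculate at 5×10^5 CFU/mL.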

Staphylococcus sp. = conditions: broth dilution, 18 hours at 35° C.
In short: as §1

Enterococcus sp. = conditions: broth dilution, 18 hours at 35° C.
In short: as §1

Escherichia coli = conditions: 18 hours at 35° C.

## CC(c1ccccc1)C1NC(=O)CNC(=O)C(CO)NC(=O)C(C(O)C2CNC(=N)N2C2OC(CO)C(O)C(O)C2O)NC(=O)C(C(O)C2CNC(=N)N2)NC(=O)C(Cc2ccc(OC3OC(CO)C(OC4OC(COCc5cccs5)C(O)C(O)C4O)C(O)C3O)cc2)NC1=O (stereo not shown) [Example 244]
Streptococcus sp.
  MIC Streptococcus agalactiae (GC 4564): 4 µg/mL (≈ 2.87 µM)
  MIC Streptococcus pneumoniae (ATCC 6301): 1 µg/mL (≈ 0.719 µM)
  MIC Streptococcus pneumoniae (GC 1894): 0.5 µg/mL (≈ 0.359 µM)
  MIC Streptococcus pneumoniae (GC 4565): 1 µg/mL (≈ 0.719 µM)
  MIC Streptococcus pyogenes (GC 4563): 2 µg/mL (≈ 1.44 µM)
Streptococcus sp.; inoculum 5×10^5 CFU/mL, strain ATCC 6301
  MIC Streptococcus pneumoniae (ATCC 6301): 1 µg/mL (≈ 0.719 µM)
Streptococcus sp.; inoculum 5×10^5 CFU/mL, strain GC 1894
  MIC Streptococcus pneumoniae (GC 1894): 0.5 µg/mL (≈ 0.359 µM)
Streptococcus sp.; inoculum 5×10^5 CFU/mL, strain GC 4563
  MIC Streptococcus pyogenes (GC 4563): 2 µg/mL (≈ 1.44 µM)
Streptococcus sp.; inoculum 5×10^5 CFU/mL, strain GC 4564
  MIC Streptococcus agalactiae (GC 4564): 4 µg/mL (≈ 2.87 µM)
Streptococcus sp.; inoculum 5×10^5 CFU/mL, strain GC 4565
  MIC Streptococcus pneumoniae (GC 4565): 1 µg/mL (≈ 0.719 µM)
Staphylococcus sp.
  MIC Coagulase Negative Staphylococcus (GC 4547): 4 µg/mL (≈ 2.87 µM)
  MIC Coagulase Negative Staphylococcus (GC 4548): 2 µg/mL (≈ 1.44 µM)
  MIC Coagulase Negative Staphylococcus (GC 4549): 2 µg/mL (≈ 1.44 µM)
  MIC Coagulase Negative Staphylococcus (GC 4551): 4 µg/mL (≈ 2.87 µM)
  MIC Coagulase Negative Staphylococcus (GC 6257): 2 µg/mL (≈ 1.44 µM)
  MIC Staphylococcus aureus (ATCC 29213): 8 µg/mL (≈ 5.75 µM)
  MIC Staphylococcus aureus (GC 1131): 8 µg/mL (≈ 5.75 µM)
  MIC Staphylococcus aureus (GC 3051): 8 µg/mL (≈ 5.75 µM)
  MIC Staphylococcus aureus (GC 3053): 16 µg/mL (≈ 11.5 µM)
  MIC Staphylococcus aureus (GC 4541): 8 µg/mL (≈ 5.75 µM)
  MIC Staphylococcus aureus (GC 4542): 1 µg/mL (≈ 0.719 µM)
  MIC Staphylococcus aureus (GC 4544): 8 µg/mL (≈ 5.75 µM)
  MIC Staphylococcus aureus (GC 4545): 8 µg/mL (≈ 5.75 µM)
  MIC Staphylococcus aureus-SMITH (GC 4543): 4 µg/mL (≈ 2.87 µM)
  MIC Staphylococcus haemolyticus (GC 4546): 4 µg/mL (≈ 2.87 µM)
Staphylococcus sp.; strain ATCC 29213
  MIC Staphylococcus aureus (ATCC 29213): 8 µg/mL (≈ 5.75 µM)
Staphylococcus sp.; strain GC 1131
  MIC Staphylococcus aureus (GC 1131): 8 µg/mL (≈ 5.75 µM)
Staphylococcus sp.; strain GC 3051
  MIC Staphylococcus aureus (GC 3051): 8 µg/mL (≈ 5.75 µM)
Staphylococcus sp.; strain GC 3053
  MIC Staphylococcus aureus (GC 3053): 16 µg/mL (≈ 11.5 µM)
Staphylococcus sp.; strain GC 4541
  MIC Staphylococcus aureus (GC 4541): 8 µg/mL (≈ 5.75 µM)
Staphylococcus sp.; strain GC 4542
  MIC Staphylococcus aureus (GC 4542): 1 µg/mL (≈ 0.719 µM)
Staphylococcus sp.; strain GC 4543
  MIC Staphylococcus aureus-SMITH (GC 4543): 4 µg/mL (≈ 2.87 µM)
Staphylococcus sp.; strain GC 4544
  MIC Staphylococcus aureus (GC 4544): 8 µg/mL (≈ 5.75 µM)
Staphylococcus sp.; strain GC 4545
  MIC Staphylococcus aureus (GC 4545): 8 µg/mL (≈ 5.75 µM)
Staphylococcus sp.; strain GC 4546
  MIC Staphylococcus haemolyticus (GC 4546): 4 µg/mL (≈ 2.87 µM)
Staphylococcus sp.; strain GC 4547
  MIC Coagulase Negative Staphylococcus (GC 4547): 4 µg/mL (≈ 2.87 µM)
Staphylococcus sp.; strain GC 4548
  MIC Coagulase Negative Staphylococcus (GC 4548): 2 µg/mL (≈ 1.44 µM)
Staphylococcus sp.; strain GC 4549
  MIC Coagulase Negative Staphylococcus (GC 4549): 2 µg/mL (≈ 1.44 µM)
Staphylococcus sp.; strain GC 4551
  MIC Coagulase Negative Staphylococcus (GC 4551): 4 µg/mL (≈ 2.87 µM)
Staphylococcus sp.; strain GC 6257
  MIC Coagulase Negative Staphylococcus (GC 6257): 2 µg/mL (≈ 1.44 µM)
Enterococcus sp.
  MIC Enterococcus avium (GC 4558): 32 µg/mL (≈ 23 µM)
  MIC Enterococcus faecalis (ATCC 29212): 32 µg/mL (≈ 23 µM)
  MIC Enterococcus faecalis (GC 2242): 32 µg/mL (≈ 23 µM)
  MIC Enterococcus faecalis (GC 2691): 32 µg/mL (≈ 23 µM)
  MIC Enterococcus faecalis (GC 3059): 64 µg/mL (≈ 46 µM)
  MIC Enterococcus faecalis (GC 4552): 32 µg/mL (≈ 23 µM)
  MIC Enterococcus faecalis (GC 4553): 32 µg/mL (≈ 23 µM)
  MIC Enterococcus faecalis (GC 4554): 64 µg/mL (≈ 46 µM)
  MIC Enterococcus faecalis (GC 6189): 32 µg/mL (≈ 23 µM)
  MIC Enterococcus faecium (GC 2243): 32 µg/mL (≈ 23 µM)
  MIC Enterococcus faecium (GC 4556): 32 µg/mL (≈ 23 µM)
  MIC Enterococcus faecium (GC 4557): 4 µg/mL (≈ 2.87 µM)
Enterococcus sp.; strain ATCC 29212
  MIC Enterococcus faecalis (ATCC 29212): 32 µg/mL (≈ 23 µM)
Enterococcus sp.; strain GC 2243
  MIC Enterococcus faecium (GC 2243): 32 µg/mL (≈ 23 µM)
Enterococcus sp.; strain GC 4552
  MIC Enterococcus faecalis (GC 4552): 32 µg/mL (≈ 23 µM)
Enterococcus sp.; strain GC 4553
  MIC Enterococcus faecalis (GC 4553): 32 µg/mL (≈ 23 µM)
Enterococcus sp.; strain GC 4554
  MIC Enterococcus faecalis (GC 4554): 64 µg/mL (≈ 46 µM)
Enterococcus sp.; strain GC 4556
  MIC Enterococcus faecium (GC 4556): 32 µg/mL (≈ 23 µM)
Enterococcus sp.; strain GC 4557
  MIC Enterococcus faecium (GC 4557): 4 µg/mL (≈ 2.87 µM)
Enterococcus sp.; strain GC 4558
  MIC Enterococcus avium (GC 4558): 32 µg/mL (≈ 23 µM)
Enterococcus sp.; strain GC 6189
  MIC Enterococcus faecalis (GC 6189): 32 µg/mL (≈ 23 µM)
Enterococcus sp.; inoculum 5×10^5 CFU/mL, strain GC 2242
  MIC Enterococcus faecalis (GC 2242): 32 µg/mL (≈ 23 µM)
Enterococcus sp.; inoculum 5×10^5 CFU/mL, strain GC 2691
  MIC Enterococcus faecalis (GC 2691): 32 µg/mL (≈ 23 µM)
Enterococcus sp.; inoculum 5×10^5 CFU/mL, strain GC 3059
  MIC Enterococcus faecalis (GC 3059): 64 µg/mL (≈ 46 µM)
Escherichia coli
  MIC Escherichia coli (ATCC 25922): >64 µg/mL
  MIC Escherichia coli (GC 4559): 64 µg/mL (≈ 46 µM)
  MIC Escherichia coli (GC 4560): 2 µg/mL (≈ 1.44 µM)
